Reference: EPA's ToxValDB 9.5 (doi:10.2903/j.efsa.2006.79r)
Values after ≈ are worked out from the molar mass of the structure shown.

Columns and labels:
[1] = tested on: Oncorhynchus mykiss
[2] = tested on: Colinus virginianus; conditions: reproduction developmental
[3] = tested on: Apis mellifera; conditions: acute; duration: 48 hours; dermal; mortality
[4] = tested on: Coturnix japonica; conditions: acute; oral; mortality
[5] = tested on: Tagia sp.; conditions: mortality
[6] = tested on: Daphnia magna; conditions: chronic/long-term; reproduction
[7] = tested on: Canidae; conditions: subchronic; duration: 90 days; oral; diet; Dog Other; clinical signs
[8] = tested on: Anas platyrhynchos; conditions: short-term; duration: 5 days; oral; feed; mortality
[9] = tested on: Rattus norvegicus; conditions: acute; oral; mortality
[10] = tested on: Aphidius rhopalosiphi; experiment: LR50; higher = less toxic; conditions: acute; duration: 48 hours; mortality

**Q.** How did the LC50 ([1]; acute, mortality) turn out when `CNC(=O)Oc1cc(C)c(SC)c(C)c1` [Methiocarb] was run?
**A.** 0.65 µg/mL (≈ 2.88 µM)

**Q.** What about the NOEC ([1]; chronic/long-term, growth) of the same molecule?
**A.** 0.05 mg/L

**Q.** What about the NOEC [2] of the same molecule?
**A.** 4.51 mg/kg-day

**Q.** And the LD50 [3]?
**A.** 0.23 µg/piece

**Q.** What about the LD50 [4] of the same molecule?
**A.** 5 mg/kg

**Q.** What about the LC50 ([5]; acute) of the same molecule?
**A.** 1330 mg/kg

**Q.** What about the NOEC ([5]; chronic/long-term) of the same molecule?
**A.** 0.32 mg/kg

**Q.** What about the NOEC [6] of the same molecule?
**A.** 0.0001 mg/L

**Q.** And the NOAEL [7]?
**A.** 1.33 mg/kg-day

**Q.** And the LC50 [8]?
**A.** 1070 mg/kg

**Q.** What about the LD50 [9] of the same molecule?
**A.** 19 mg/kg

**Q.** And the LR50 [10]?
**A.** 0.47 g/ha
